Biological target: human VR1 (Homo sapiens, UniProt Q8NER1)
Experiment: Human VR1 antagonist assay (Ca2+ imaging)
Format: cell-based
Details: Ca2+ imaging assay using human VR1 highly expressing cells, fura-2/AM; agonist stimulation (capsaicin 300 nM or acid pH 5.8), not given
Excerpt: Human VR1 Antagonist Assay
VR1 antagonistic activity can be determined by the Ca^2+ imaging assay using human VR1 highly expressing cells. The cells that highly express human VR1 receptors are obtainable from several different conventional methods. The one standard method is cloning from human Dorsal Root Ganglion (DRG) or kidney according to the methods such as described in the journal article; Nature, 389, pp 816-824, 1997. Alternatively VR1 receptors highly expressing human keratinocytes are also known and published in the journal article (Biochemical and Biophysical Research Communications, 291, pp 124-129, 2002). […] Furthermore, the method to up regulate human VR1 gene, which is usually a silent gene or don't produce detectable level of VR1 receptors, is also available to obtain propriety cells. Such genetic modification method was described in detail; Nat. Biotechnol., 19, pp 440-445, 2001.
The cells that express human VR1 receptors were maintained in culture flask at 37° C. in an environment containing 5% CO2 until use in the assay. The intracellular Ca^2+ imaging assay to determine VR1 antagonistic activities were done by following procedures.
The culture medium was removed from the flask and fura-2/AM fluorescent calcium indicator was added to the flask at a concentration of 5 μM in the medium. The flask was placed in CO2 incubator and incubated for 1 hour. Then the cells expressing the human VR1 receptors were detached from the flask follow by washing with phosphate buffer saline, PBS(−) and re-suspended in assay buffer. The 80 μl of aliquot of cell suspension (3.75×10^5 cells/ml) was added to the assay plate and the cells were spun down by centrifuge (950 rpm, 20° C., 3 minutes).
The compounds of the examples were tested in the Human VR1 antagonist assay described above.
The capsaicin-induced changes in the intracellular calcium concentration were monitored using FDSS 6000 (Hamamatsu Photonics, Japan), a fluorometric imaging system. The cell suspension in Krebs-Ringer HEPES (KRH) buffer (115 mM NaCl, 5.4 mM KCl, 1 mM MgSO4, 1.8 mM CaCl2, 11 mM D-Glucose, 25 mM HEPES, 0.96 mM Na2HPO4, pH 7.3) were pre-incubated with varying concentrations of the test compounds or KRH buffer (buffer control) for 15 minutes at room temperature under the dark condition. Then capsaicin solution, which gives 300 nM in assay mixture, was automatically added to the assay plate by the FDSS 6000.
The Acid-induced changes in the intracellular calcium concentration were monitored using FDSS 6000 (Hamamatsu Photonics, Japan), a fluorometric imaging system. The cell suspension in resting buffer (HBSS supplemented with 10 mM HEPES, pH 7.4) were pre-incubated with varying concentrations of the test compounds or resting buffer (buffer control) for 15 minutes at room temperature under the dark condition. The cells were automatically added the stimulating solution (HBSS supplemented with MES, final assay buffer pH5.8) by the FDSS 6000.
The monitoring of the changes in the fluorescence signals (λex=340 nm/380 nm, λem=510-520 nm) was initiated at 1 minute prior to the addition of capsaicin solution or acidic buffer and continued for 5 minute.

human VR1, sequence (Q8NER1 whole entry): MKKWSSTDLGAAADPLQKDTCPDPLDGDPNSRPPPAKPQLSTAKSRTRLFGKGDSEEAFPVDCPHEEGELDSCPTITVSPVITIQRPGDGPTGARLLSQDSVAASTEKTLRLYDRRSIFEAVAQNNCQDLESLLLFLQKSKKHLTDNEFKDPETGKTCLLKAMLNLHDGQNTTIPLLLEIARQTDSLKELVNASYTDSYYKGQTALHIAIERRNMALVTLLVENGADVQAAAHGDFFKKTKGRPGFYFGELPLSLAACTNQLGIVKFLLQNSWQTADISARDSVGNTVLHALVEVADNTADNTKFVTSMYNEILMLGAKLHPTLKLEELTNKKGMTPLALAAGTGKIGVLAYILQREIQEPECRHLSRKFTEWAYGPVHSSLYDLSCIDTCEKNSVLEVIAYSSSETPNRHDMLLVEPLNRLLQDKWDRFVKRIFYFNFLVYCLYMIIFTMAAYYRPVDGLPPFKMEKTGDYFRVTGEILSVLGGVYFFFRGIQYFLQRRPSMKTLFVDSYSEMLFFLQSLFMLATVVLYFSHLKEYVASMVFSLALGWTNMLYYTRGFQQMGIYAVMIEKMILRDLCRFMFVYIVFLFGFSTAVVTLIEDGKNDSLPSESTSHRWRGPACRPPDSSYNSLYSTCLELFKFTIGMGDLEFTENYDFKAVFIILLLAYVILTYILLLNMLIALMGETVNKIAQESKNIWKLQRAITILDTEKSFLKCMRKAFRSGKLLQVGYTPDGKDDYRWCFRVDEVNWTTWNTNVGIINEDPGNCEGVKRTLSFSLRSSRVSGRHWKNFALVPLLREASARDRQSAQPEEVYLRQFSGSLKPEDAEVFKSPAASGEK

Row | IC50 [µM] | Compound
1 | 0.422 | Cc1ccc2nccc(CNC(=O)c3ccc4nc(C(C)(C)C(F)(F)F)ccc4c3)c2c1 [Example C14, N-[(6-methylquinolin-4-yl)methyl]-2-(2,2,2-trifluoro-1,1-dimethylethyl)quinoline-6-carboxamide]
2 | 0.0164 | CC(NC(=O)c1ccc2cc(C(C)(C)C)ccc2c1)c1ccc2[nH]ncc2c1 (centres unmarked) [Example A5, 6-tert-butyl-N-[1-1H-indazole-5-ylethyl]-2-naphthamide]
